Experimental data taken from article PMC3369139, “Preclinical evaluation of two ^68Ga-siderophores as potential radiopharmaceuticals for Aspergillus fumigatus infection imaging” (European Journal of Nuclear Medicine and Molecular Imaging, 2012).
Values joined by “and” are separate entries in the source; they are usually repeats but may differ in a detail not shown here. Identical values can stand only once.

How the values were obtained:
A. fumigatus [1] = test: Ex vivo biodistribution in rat A. fumigatus infection model, standard; design: species or system Lewis rats
Procedure: (§1) The A. fumigatus (A29) isolate was grown on Sabouraud dextrose agar (BD) for 5 days at 37 °C, and the conidia were harvested in 2 ml of sterile NaCl by gently rubbing with a pipette tip. The conidia suspension was transferred into a sterile 50 ml plastic tube. After homogenization (vortex) and filtration (40 μm nylon cell strainer; BD), the suspension was counted in a Neubauer chamber and adjusted to the volitional concentration in the range 1 × 10^5 to 1 × 10^9 conidia per millilitre.
(§2) Female or male Lewis rats (2–3 months old), weighing 200–250 g, were treated as described previously. Briefly, the rats received repeated intraperitoneal injections of cyclophosphamide to induce neutropenia before A. fumigatus administration. To prevent bacterial superinfection, the animals were given antibiotics throughout the experiment. Fungal infection was established by intratracheal administration of 100–300 μl of A. fumigatus inoculum in various concentrations (1 × 10^5 to 1 × 10^9 conidia per millilitre). Animals were injected intravenously 1–3 days (depending on the severity of infection) after A. fumigatus administration with ^68Ga-labelled siderophore (10–20 MBq and 1–2 μg of siderophore per rat). The rats were imaged or killed by overdosing with thiopental (Sandoz, Kundl, Austria) 2 h after injection. Various organs and tissues (blood, spleen, kidneys, liver and lungs) were removed and radioactivity was measured in a γ-counter. The excised organs were investigated for the presence of fungi, as described below.
(§3) The excised organs were homogenized in a petri dish using a sterile surgical blade and transferred to Sabouraud dextrose agar (BD) plates. The plates were incubated at 37 °C and examined daily for 7 days. […] Severe infection was defined as the presence of severe fungal growth 1 day after incubation, mild infection was defined as the presence of minor growth up to 3 days after incubation, and no infection was defined as lack of growth within 1 week of incubation.

[2] = Protein binding in human serum; type: in vitro ADME
Procedure: (§4) TAFC and FOXE were labelled with ^68Ga using acetate buffer at room temperature for 15 min (TAFC) and at 80 °C for 20 min (FOXE). For all in vitro and in vivo studies, the pH of the final product was adjusted with 1.1 M sodium acetate to pH 6–7. The radiochemical purity, log P, protein binding and stability of ^68Ga-siderophores in various media were determined, as described previously.

[3] = test system: A. fumigatus wild-type ATCC46645; test: In vitro uptake of ^68Ga-siderophores by A. fumigatus cultures; type: cell-based, Aspergillus fumigatus; settings: room temperature
Procedure: The Aspergillus strain used for in vitro studies was A. fumigatus wild-type ATCC46645 (American Type Culture Collection) cultured at 37 °C in Aspergillus minimal medium, containing 1 % glucose as the carbon source, 20 mM glutamine as the nitrogen source, salts and trace elements, as described previously. Iron-sufficient media contained […] FeSO4. For preparation of iron-deficient media, iron addition was omitted. Iron-deficient conditions were verified by detection of extracellular siderophore production, which is suppressed by iron.
Uptake by A. fumigatus in iron-deficient and iron-sufficient cultures was studied. For the monitoring of uptake over time, ^68Ga-siderophores (5 ng) were incubated in microbial media for 10, 20, 30, 45, 60 and 90 min at room temperature in 96-well plates (Millipore, Billerica, MA). For the monitoring of uptake blocking, excess of ferri-siderophore (Fe-TAFC or Fe-FOXE) and/or sodium azide was used. ^68Ga-siderophores were incubated in iron-deficient and iron-sufficient media for 45 min at room temperature in 96-well plates. The incubation was interrupted in both cases by filtration of the medium and rapid rinsing with ice-cold TRIS buffer. The filters were collected and counted in a γ-counter.

Stability in 6 mM DTPA = type: physicochemical
Procedure: as §4

[4] = Log P of ^68Ga-siderophores; type: physicochemical; settings: determined as described previously [20]
Procedure: as §4

Stability in 0.1 M FeCl3 = type: physicochemical
Procedure: as §4

[5] = Metabolic stability in normal Balb/c mice (RP-HPLC of urine, blood, liver and kidney homogenates); type: in vivo; settings: 30 min p.i., % intact on RP-HPLC
Procedure: Urine, blood, liver and kidneys of normal Balb/c mice injected with ^68Ga-siderophores and treated as described previously were collected 30 min after injection. The urine sample was directly injected onto the RP-HPLC column. Blood samples were precipitated with acetonitrile and centrifuged for 2 min, and the supernatant was injected onto the RP-HPLC column. Liver and kidneys were washed in the ice-cold TRIS buffer and liquidized using a mixer in a falcon tube containing 1 ml of TRIS buffer. The liver and kidney homogenates obtained were mixed with acetonitrile and centrifuged for 2 min, and the supernatant was injected onto the RP-HPLC column. In all cases 1 min fractions of the column eluate were collected and measured in a γ-counter. Samples were not collected at 90 min after injection because the measured activity was already low in the samples obtained 30 min after injection. All metabolic studies were performed using a previously described HPLC method.

A. fumigatus [6] = test: PET imaging in rat A. fumigatus infection model; type: in vivo, Lewis rats; settings: infected rats, lungs, calculated from all PET imaging studies, mean ± sd, n=13
Procedure: as §2
PET images were acquired with an Inveon animal PET/CT scanner (Siemens Preclinical Solutions, Knoxville, TN) with an intrinsic spatial resolution of 1.5 mm. The animals were placed in a prone position. Static PET images were acquired over 30 min starting 30 min after intravenous injection of ^68Ga-siderophore. Dynamic PET imaging was started upon injection and continued up to 60 min after injection. In addition, combined PET/CT scans were performed for anatomical reference. PET emission scans were acquired for 30 min, preceded by CT scans (spatial resolution 113 μm, 80 kV, 500 μA, exposure time 300 ms). After imaging, animals were killed by CO2/O2. Scans were reconstructed using Inveon Acquisition Workplace software (version 1.5; Siemens Preclinical Solutions, Knoxville, TN) using a 3-D ordered subset expectation maximization/maximum a posteriori (OSEM3D/MAP) algorithm with the following parameters: matrix 256 × 256 × 159, pixel size 0.43 × 0.43 × 0.8 mm^3 and a MAP prior β-value of 1.5.

Stability in human serum = type: in vitro ADME
Procedure: as §4

A. fumigatus [7] = test: Ex vivo biodistribution in rat A. fumigatus infection model, iron preload; design: species or system Lewis rats
Procedure: as §1, §2
Rats were treated as in the ‘standard’ infection model above, except that iron solution (FerMed; Medice, Iserlohn, Germany) 10 mg/kg was injected intraperitoneally three times (1 week, 4 days and 1 day) before A. fumigatus administration.
as §3

[8] = Biodistribution in normal Balb/c mice; type: in vivo; settings: normal noninfected Balb/c mice, i.v. tail vein
Procedure: Normal noninfected Balb/c mice (female, 6 weeks old) were injected with ^68Ga-siderophore (2 MBq and 0.1–0.2 μg of siderophore per mouse) into the tail vein. Animals were killed by cervical dislocation 30 min and 90 min after injection. The organs and tissues (blood, spleen, pancreas, stomach, intestines, kidneys, liver, heart, lungs, muscle and femur) were removed and radioactivity was counted in a γ-counter. The results are expressed as percentage of injected dose per gram of tissue.

[9] = iron preload model, 2 h after injection

## CC(=O)NC1CCCN([O-])C(=O)C=C(C)CCOC(=O)C(NC(C)=O)CCCN([O-])C(=O)C=C(C)CCOC(=O)C(NC(C)=O)CCCN([O-])C(=O)C=C(C)CCOC1=O.[68Ga+3] (stereo not shown) [^68Ga-TAFC, triacetylfusarinine C]
A. fumigatus [1]; 2 h after injection
  Lung/blood ratio, control (mean ± sd): 1.34 ± 0.22 (n=9)
  Lung/blood ratio, mild infection (mean ± sd): 3.82 ± 2.89 (n=3)
  Lung/blood ratio, severe infection (mean ± sd): 15.11 ± 11.37 (n=4)
  Lung/kidneys ratio, control (mean ± sd): 0.07 ± 0.03 (n=9)
  Lung/kidneys ratio, mild infection (mean ± sd): 0.16 ± 0.14 (n=3)
  Lung/kidneys ratio, severe infection (mean ± sd): 1.40 ± 0.76 (n=4)
  Lung/liver ratio, control (mean ± sd): 0.84 ± 0.48 (n=9)
  Lung/liver ratio, mild infection (mean ± sd): 4.81 ± 2.70 (n=3)
  Lung/liver ratio, severe infection (mean ± sd): 14.29 ± 6.10 (n=4)
A. fumigatus [1]; mildly infected rats, lungs ex vivo 2 h after injection, n in cell
  Mild infection (%ID/g - lungs) (mean ± sd): 0.29 ± 0.12 %ID/g and 0.29 ± 0.12 (n=3) %ID/g
A. fumigatus [1]; rats showing no infection, lungs ex vivo 2 h after injection, n in cell
  Control (%ID/g - lungs) (mean ± sd): 0.04 ± 0.01 %ID/g and 0.04 ± 0.01 (n=9) %ID/g
A. fumigatus [1]; severely infected rats, lungs ex vivo 2 h after injection, γ-counter, n in cell
  Severe infection (%ID/g - lungs) (mean ± sd): 0.95 ± 0.37 %ID/g and 0.95 ± 0.37 (n=4) %ID/g
[2]; incubation time 30 min
  Protein binding (%): 0.47%
[2]; incubation time 60 min
  Protein binding (%): 0.76%
[2]; incubation time 120 min
  Protein binding (%): 1.21%
[3]; 5 ng ^68Ga-siderophore, 10-90 min, 96-well plates, filtration, γ-counter
  Uptake by A. fumigatus in iron-deficient cultures: rapid uptake
[3]; iron-deficient cultures, 45 min incubation
  Blocking of uptake with excess of ferri-siderophore and/or sodium azide: could be blocked
Stability in 6 mM DTPA; incubation time 30 min
  Stability in 6-mM DTPA (%): 85.0%
Stability in 6 mM DTPA; incubation time 60 min
  Stability in 6-mM DTPA (%): 84.7%
[4]
  Log P: −2.59
Stability in 0.1 M FeCl3; incubation time 30 min
  Stability in 0.1-M FeCl3 (%): 99.4%
Stability in 0.1 M FeCl3; incubation time 60 min
  Stability in 0.1-M FeCl3 (%): 98.5%
Stability in 0.1 M FeCl3; incubation time 120 min
  Stability in 0.1-M FeCl3 (%): 99.3%
[5]
  Stability in kidney homogenate (%): 96.7%
  Stability in liver homogenate (%): 98.1%
[5]; γ-counter
  Stability in urine (%): 97.6%
[5]; acetonitrile precipitation
  Stability in blood (%): 98.7%
A. fumigatus [6]
  Target/non-target ratio: 5.81 ± 6.05 (n=13)
Stability in human serum; incubation time 30 min
  Stability in human serum (%): 99.9%
Stability in human serum; incubation time 60 min
  Stability in human serum (%): 99.9%
Stability in human serum; incubation time 120 min
  Stability in human serum (%): 99.9%
A. fumigatus [7]; iron preload model (10 mg/kg i.p. three times), severely infected rats, lungs 2 h after injection, n in cell
  Severe infection (%ID/g - lungs): 0.64 (n=1) %ID/g
A. fumigatus [7]; [9]
  Lung/blood ratio, control: 0.99 (n=1)
  Lung/blood ratio, mild infection: 5.35 (n=2)
  Lung/blood ratio, severe infection: 1.41 (n=1)
  Lung/kidneys ratio, control: 0.08 (n=1)
  Lung/kidneys ratio, mild infection: 0.31 (n=2)
  Lung/kidneys ratio, severe infection: 0.07 (n=1)
  Lung/liver ratio, control: 0.76 (n=1)
  Lung/liver ratio, mild infection: 4.53 (n=2)
  Lung/liver ratio, severe infection: 3.49 (n=1)
A. fumigatus [7]; iron preload model, mildly infected rats, lungs 2 h after injection, n in cell
  Mild infection (%ID/g - lungs): 0.27 (n=2) %ID/g
A. fumigatus [7]; iron preload model, rats showing no infection, lungs 2 h after injection, n in cell
  Control (%ID/g - lungs): 0.04 (n=1) %ID/g
[8]; 30 min after injection
  Blood level: 1.6 ± 0.37 %ID/g
  Intestinal accumulation: 1.7 ± 1.04 %ID/g
[8]; 90 min after injection
  Intestinal accumulation: 1.0 ± 0.26 %ID/g
